# Measurements as given in patent publication US20250145693A1, “HERV-K ANTIBODY, CELL, VACCINE, AND DRUG THERAPEUTICS” (priority 2021, published 2025).
# B1: m6H5: murine anti-HERV-K monoclonal antibody (antibody, V domains shown)
# VH: QVKLQQSGPDLVKPGASVKISCKASGYSFTGYYMHWVKQSHGKSLEWIGRVNPNSGGTSYNQKFKDKAILTVDKSSSTAYMELRSLTSEDSAVYYCARSKGNYFYAMDYWGQGTTVTVSS
# VL: DIELTQSPASLAVSLGQRATISCRASESVDSHGTSFMHWYQQKPGQPPKFLIYRASNLESGIPARFSGSGSRTDFTLTINPVETDDVAIYYCQQSNEDPPTFGGGTKLEIK
# Tests used:
# breast cancer cell lines [1] = assay: expression of HERV-K and signaling proteins after H2O2 or paclitaxel; type: cell-based, human; conditions: for expression of signaling proteins by immunoblot: paclitaxel (Tax, 0.1 μM) or H2O2 (5 μM or 10 μM), vs parent cells
# [2] = system: MDA-MB-231, Hs578T, and MCF-7 breast cancer cells; assay: proliferation and drug sensitivity of breast cancer cells after HERV-K KD; type: cell-based, human; conditions: for sensitivity of breast cancer cells toward drug: MCF-7 and Hs578T stably transduced with shRNAenv vs shRNAc or parent cells
# Description: Here, the inventors further determined the effects of HERV-K env gene KD in breast cancer cells treated with breast cancer chemotherapy drugs.
# [3] = system: MCF-7, HS578T, MDA-MB-231 cells; assay: transwell migration and invasion; type: cell-based, human; parameters: dose or concentration left out as unconfirmed
# Method: The effects of KD of HERV-K env on migration and invasion were investigated using transwell plates. After transwell plates (8 μm) were rehydrated for 2 hours, 2.5×10^4 cells were seeded into the transwell and cultured. The transwell was then removed and the cells that had migrated into the lower chamber were counted. For the invasion assay, transwells were coated with Matrigel, and cells remaining in the upper chamber were removed with a cotton swab. The invaded cells on the reverse side of the Matrigel were counted under a light microscope (40× magnification) after the cells were fixed with methanol and stained with Giemsa. Ten random fields were counted. The average number of invaded cells per field was presented as mean±SD (n=10 fields). Triplicate assays were performed for each experiment.
# [4] = system: MCF-7 and Hs578T breast cancer cell lines; assay: cell cycle distribution by FACS; type: cell-based, human; conditions: Hs578T cells, especially in the shRNAenv cells
# [5] = system: HCT15, SW48 and HCT116 cells; assay: HERV-K expression in CRC cell lines; type: cell-based
# Description: The expression of HERV-K was detected in several CRC cell lines and tissues, but not in benign colon tissues. […] The forced overexpression of HERV-K with these agents that induce expression of HERV-K by innate immune response (Poly I:C treatment) or LTR hypomethylation (5-Aza) would provoke the cancer cells to increase production of a target that would make them more susceptible to targeted therapy to include targeted immunotherapy.
# breast cancer cell lines [6] = system: breast cancer cell lines
# [7] = system: ERVK6 and HERV-K envelope surface fusion protein; assay: immunoblot on HERV-K Env surface proteins; type: binding, human
# 4T1pLVXKenv tumors = assay: 4T1pLVXKenv combination treatment, Treg cells; type: in vivo, mouse; conditions: pLVXKenv vs pLVX; 6H5 once, IL2 for five days
# Method: BALB/c mice were inoculated with 3×10^5 4T1pLVXKenv or 4T1pLVX cells on day 0. These mice were then treated: FIG. 23B with CpG (1.24 nmol), HERV-K SU protein (10 μg, 20 μg, and 20 μg), or CpG+ HERV-K SU protein on days 6, 13, and 19. Tumor weights were compared at week 4 post tumor cell inoculation; (FIG. 23C) with Aza (0.5 mg/kg) daily for five days in two weekly cycles, anti-PD-1 (200 μg per mouse every four days; four treatments), or Aza+anti-PD-1. Mice treated with PBS were used as controls, and tumor weights were compared among groups; and (FIG. 23D) with anti-HERV-K antibody (6H5; once) and with IL2 (for five days).
# HERV-K env protein = assay: antibody internalization; type: cell-based; conditions: 37° C., 0, 5, 30, and 45 minutes; permeabilized cells
# Method: To determine antibody internalization of humanized and murine antibodies, cells were incubated with HUM1 or m6H5 at 37° C. for different time intervals (0, 5, 30, and 45 minutes). At each time point, cells were fixed. Half of the cells were permeabilized and half were not permeabilized. Anti-human IgG 488 or anti-mouse IgG 488 was used to detect the percentages of antibody-bound HERV-K env protein that remained on the cell surface in the cells that were not permeabilized. A reduced surface expression of HERV-K positive cells was observed. The internalization of rate was determined in the cells that were permeabilized. The equation for the percentage of internalization at each point was 100−(% label at time 0).
# MDA-MB-231 cells = assay: Live/dead cell viability assay; type: cell-based, human; conditions: 10 μg/ml, sixteen hours
# Method: Live/dead cell viability assays were used to assess induction of cell death after anti-HERV-K antibody treatment. MDA-MB-231 cells were seeded overnight in 24-well plates. Cells were treated with various antibodies (10 μg/ml) and incubated for sixteen hours at 37C in a cell culture incubator. Calcein Am (4 μl/10 ml media) and Eth-D1 (20 μl/10 ml media), 200 μl per well, were then added and cells were incubated for thirty minutes at room temperature. EthD-1 penetrates cells with membrane damage and binds to nucleic acids to produce red fluorescence in dead cells. Live cells (green color; Calcein Am) and putative dead cells (red color; EthD-1) were identified using the co-stained Live/Dead Viability Assay. Human IgG or mouse IgG were used control.
# [8] = system: HERV-K envelope surface fusion protein; assay: ELISA binding to HERV-K envelope surface fusion protein; parameters: species or system human
# Description: An ELISA assay was used to compare antigen binding sensitivity and specificity of hu6H5 vs. m6H5.
molecule,measurement,setting,value
CC(=O)O[C@H]1C(=O)[C@@]2(C)[C@H]([C@H](OC(=O)c3ccccc3)[C@]3(O)C[C@H](OC(=O)[C@H](O)[C@@H](NC(=O)c4ccccc4)c4ccccc4)C(C)=C1C3(C)C)[C@]1(OC(C)=O)CO[C@@H]1C[C@@H]2O [paclitaxel],expression of signaling proteins by immunoblot,breast cancer cell lines [1],"increased expression of the breast cancer relevant signaling proteins HIF-1α, HERV-K, p-RSK, p-ERK, ERK, and Ras"
same,sensitivity of breast cancer cells toward drug,[2],Enhanced sensitivity
same,cell proliferation,[2]; cells with HERV-K env KD by shRNAenv vs parent cells or shRNAc,Significantly reduced cell proliferation
same,migration and invasion,[3],Significantly reduced migration and invasion
same,cell cycle arrest,[4],G2 arrest
Nc1ncn([C@@H]2O[C@H](CO)[C@@H](O)[C@H]2O)c(=O)n1 [5-Azacytidine],expression of HERV-K,[5],Increased expression of HERV-K
Poly I:C,expression of HERV-K,[5],Increased expression of HERV-K
COc1cccc2c1C(=O)c1c(O)c3c(c(O)c1C2=O)C[C@@](O)(C(=O)CO)C[C@@H]3O[C@H]1C[C@H](N)[C@H](O)[C@H](C)O1 [doxorubicin],sensitivity of breast cancer cells toward drug,[2],Enhanced sensitivity
"OO [H2O2, Hydrogen Peroxide]",effect on shRNAenv-induced block in expression,"breast cancer cell lines [1]; 5 μM, HERV-K KD cells","reversed the shRNAenv-induced block in expression of HERV-K, HIF-1α, P-RSK, and P-ERK in a time-dependent manner"
same,expression at elevated concentrations,breast cancer cell lines [1]; 25 μM and 50 μM,decreased expression of HERV-K and corresponding decreased HIF-1a and Ras/ERK signaling
same,protein expression at graded concentrations,"breast cancer cell lines [1]; 1-50 μM, three breast cancer cell lines","enhanced expression of HERV-K, Ras, p-ERK, and HIF-1a proteins at H2O2 concentrations of 5 μM and 10 μM"
same,expression of HERV-K mRNA,"breast cancer cell lines [1]; 5 M, 0 hours to 48 hours, three breast cancer cell lines",elevated expression of HERV-K mRNA
same,"expression of HERV-K, p-MEK, and p-ERK by immunoblot",breast cancer cell lines [1]; 18 hours,"enhanced expression of HERV-K, p-MEK, and p-ERK"
same,expression of EMT markers,breast cancer cell lines [1]; MDA-MB-231 cells,"Increased expression of EMT markers including N-cadherin, vimentin, and Slug, and decreased expression of E-Cadherin"
same,expression of signaling proteins by immunoblot,breast cancer cell lines [1],"increased expression of the breast cancer relevant signaling proteins HIF-1α, HERV-K, p-RSK, p-ERK, ERK, and Ras"
same,cell proliferation,"breast cancer cell lines [6]; 5 μM, after 96 hours",Significantly increased cell proliferation
same,migration,breast cancer cell lines [6]; after 48 hours for MDA-MB-231 and after 72 hours for MCF-7,increased migration
B1,binding by immunoblot to two HERV-K Env surface proteins,[7],shown by immunoblot to bind
same,T regulatory (Treg) cells,4T1pLVXKenv tumors,Significantly decreased T regulatory (Treg) cells
same,internalized HERV-K positive cells,HERV-K env protein,increased expression of internalized HERV-K positive cells
same,"dead cells (red fluorescence, EthD-1)",MDA-MB-231 cells,red fluorescent cells were observed
same,binding detected by the inventors using ELISA or Western blot assays,[8],readily detected
